Results published in patent EP1401829B1, “NOVEL HETEROCYCLIC ANTIBACTERIAL COMPOUNDS” (Microbiotix, Inc., priority 2001, dated 2002).
Converted amounts (≈) assume the structure as drawn. Read-outs that look alike come from different tables or passages of the source. Marks after values point to notes of the source that are not given here.

Experiments:
B. subtilis Pol IIIC = biological target: T1, B. subtilis Pol IIIC (Bacillus subtilis, UniProt P13267); assay: Polymerase IIIC (Pol IIIC) assay, determination of Ki values; format: biochemical; details: assay in absence of dGTP or dATP, Ki is the concentration that reduces control polymerase IIIC activity by 50 percent; for Ki: Ki (µM) Pol IIIC
T1 construct: made in house
T1 sequence (P13267 whole entry): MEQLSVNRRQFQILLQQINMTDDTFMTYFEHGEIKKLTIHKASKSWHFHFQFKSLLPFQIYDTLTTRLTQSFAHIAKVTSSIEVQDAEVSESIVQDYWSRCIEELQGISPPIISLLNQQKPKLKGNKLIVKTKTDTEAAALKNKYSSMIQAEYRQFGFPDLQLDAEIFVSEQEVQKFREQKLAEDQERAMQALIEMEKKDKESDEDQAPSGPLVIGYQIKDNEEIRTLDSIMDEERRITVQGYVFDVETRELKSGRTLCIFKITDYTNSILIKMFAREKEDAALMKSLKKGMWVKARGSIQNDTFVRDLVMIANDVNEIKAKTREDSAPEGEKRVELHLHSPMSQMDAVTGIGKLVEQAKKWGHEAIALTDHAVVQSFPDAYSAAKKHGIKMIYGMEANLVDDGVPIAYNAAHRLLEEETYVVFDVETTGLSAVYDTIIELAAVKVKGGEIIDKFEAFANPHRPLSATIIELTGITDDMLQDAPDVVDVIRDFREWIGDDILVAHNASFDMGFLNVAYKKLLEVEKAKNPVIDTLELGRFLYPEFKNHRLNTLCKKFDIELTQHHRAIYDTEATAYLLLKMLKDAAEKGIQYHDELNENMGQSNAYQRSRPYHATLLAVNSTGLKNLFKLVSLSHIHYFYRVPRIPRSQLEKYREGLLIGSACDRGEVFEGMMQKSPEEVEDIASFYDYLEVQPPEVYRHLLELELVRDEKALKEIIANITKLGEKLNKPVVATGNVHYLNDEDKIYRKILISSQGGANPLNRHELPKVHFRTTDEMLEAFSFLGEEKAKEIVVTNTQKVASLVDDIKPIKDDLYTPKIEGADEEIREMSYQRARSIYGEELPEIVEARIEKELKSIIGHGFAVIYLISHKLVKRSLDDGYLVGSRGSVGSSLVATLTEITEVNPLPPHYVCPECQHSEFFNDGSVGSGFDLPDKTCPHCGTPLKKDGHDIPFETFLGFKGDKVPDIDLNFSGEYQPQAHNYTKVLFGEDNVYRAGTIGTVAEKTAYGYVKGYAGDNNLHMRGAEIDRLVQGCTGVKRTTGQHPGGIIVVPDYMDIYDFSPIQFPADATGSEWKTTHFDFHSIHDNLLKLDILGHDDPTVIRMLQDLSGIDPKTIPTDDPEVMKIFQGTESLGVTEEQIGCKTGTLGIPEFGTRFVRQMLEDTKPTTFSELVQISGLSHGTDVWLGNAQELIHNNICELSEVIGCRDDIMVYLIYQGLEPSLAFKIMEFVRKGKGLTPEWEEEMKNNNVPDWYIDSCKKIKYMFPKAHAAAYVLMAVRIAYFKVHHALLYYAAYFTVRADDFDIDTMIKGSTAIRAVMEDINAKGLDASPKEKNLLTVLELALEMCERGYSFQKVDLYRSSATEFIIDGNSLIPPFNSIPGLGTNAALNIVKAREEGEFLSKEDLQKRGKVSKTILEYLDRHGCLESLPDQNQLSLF
In short: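 Isolated B. subtilis Pol IIIC (0.025–0.06 units) run 10 min at 30°C in 30 mM Tris pH 7.5, 10 mM Mg acetate, 4 mM DTT, 20% glycerol. Substrates were 0.4 mg/ml activated calf thymus DNA, 25 µM dNTPs and 10 µM [3H]dTTP, with dGTP or dATP omitted per compound structure.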

B. subtilis = assay: Minimal Inhibitory Concentration (MIC) determination, 96 well plates; format: cell-based, Bacillus subtilis; details: Bacillus subtilis; HBI medium, 16 to 18 hours at 37°C; read-out: MIC (µg/ml) B. subtilis
In short: (§1)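 Broth growth in Heart-Brain Infusion medium, seeded at about 1x10^5 CFU/ml, 16 to 18 hours at 37°C. Growth read at OD 600 nm as percent of untreated control; five concentrations per drug, five data points each, MIC reported in µg/ml.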

S. aureus = assay: as above; format: cell-based, Staphylococcus aureus; details: Staphylococcus aureus, read-out: MIC (µg/ml) S. aureus
In short: (§2)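 Cultures seeded at approximately 1x10^5 CFU/ml in Heart-Brain Infusion medium were exposed to five compound concentrations, five data points each, for 16 to 18 hours at 37°C. Growth at OD 600 nm was expressed as percent of control, and MIC values are given in µg/ml.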

S.aureus (Smith) = assay: as above; format: cell-based, Staphylococcus aureus; details: Staphylococcus aureus
In short: as §1

E. fecalis = assay: as above; format: cell-based, Enterococcus fecalis; details: Enterococcus; HBI medium, 16 to 18 hours at 37°C; read-out: MIC (µg/ml) E. fecalis
In short: as §1

E. fecium = assay: as above; format: cell-based, Enterococcus fecium; details: Enterococcus; HBI medium, 16 to 18 hours at 37°C; read-out: MIC (µg/ml) E. fecium
In short: as §1

E. coli = assay: as above; format: cell-based, Escherichia coli; details: Escherichia coli, read-out: MIC (µg/ml) E. coli
In short: as §2

MRSA 1123 = assay: MIC against clinically relevant strains; format: cell-based; details: Staphylococcus aureus, methicillin resistant S. aureus strain
Procedure: (§3) The following methods were used to characterize representative compounds. Minimal Inhibitory Concentration (MIC) determinations. MIC values were determined in 96 well plates, with bacterial growth monitored at OD 600 nm in 200µl following an initial bacterial seeding at approximately 1x10^5 colony forming units (CFU)/ml. Each drug is evaluated at five concentrations, with five data points at each dilution. MIC values (µg/ml) were determined against actively growing cultures in Heart-Brain Infusion (HBI) medium. Cell growth in cultures supplemented with a test compound was calculated as a percent of control at OD 600 nm after 16 to 18 hours at 37°C. This plate format conserves test compound and provides precise, quantitative data with low standard deviation determinations. Polymerase IIIC (Pol IIIC) assay. DNA polymerase activity (or inhibition thereof) was measured in a 96-well plate format. B. subtilis Pol IIIC was isolated as described by Hammond and Brown (Protein Expr. Purif., 3: 65-70 (1992)). Each 25 µl assay contained 30 mM Tris, pH 7.5, 10 mM magnesium acetate, 4 mM dithiothreitol, 20% glycerol, with 25 µM dATP, dCTP, dGTP and 10 µM dTTP (^3H-labelled at 1.44 Ci/mmole) and 0.4 mg/ml activated calf thymus DNA as substrates, as described previously (see Barnes et al, op. cit). Assays were initiated by the addition of 0.025 to 0.06 units of enzyme 1 unit is the amount required to incorporate 250 pmoles of [^3H] dTMP in a standard assay), incubated for 10 minutes at 30°C and terminated by the addition of 200 µl of cold 10% trichloroacetic acid (TCA),10 mM sodium pyrophosphate. Precipitated labeled DNA was collected on glass fiber filter plates, washed, dried, and counted in a liquid scintillation counter. Determination of Ki values. DNA polymerase activity was measured in a 96-well plate format in the absence of dGTP or dATP, depending on the structure of the test compound. Each 25 µl assay contained 30 mM Tris, pH 7.5, 10 mM magnesium acetate, 4 mM dithiothreitol, 20% glycerol, with 25 µM dATP, dCTP, and 10 µM dTTP (^3H-labelled at 1.44 Ci/mmole) and 0.4 mg/ml activated calf thymus DNA as substrates, as described previously. To each well were added 2 µl of compound solution to give final concentrations ranging from 20 - 0.027 µg/ml in the assay. Assays were initiated by the addition of 0.025 to 0.06 units of enzyme (1 unit is the amount required to incorporate 250 pmoles of [^3H] dTMP in a standard assay), incubated for 10 minutes at 30 °C and terminated by the addition of 200 µl of cold 10% trichloroacetic acid, 10 mM sodium pyrophosphate. Precipitated labeled DNA was collected on glass fiber filter plates, washed, dried, and counted in a liquid scintillation counter. Ki is the concentration of test compound that reduces the control polymerase IIIC activity by 50 percent.
(§4) Compounds were also tested for antibacterial activity against certain clinically relevant strains, e.g., methicillin sensitive (MSSA) and methicillin resistant (MRSA) strains of Staphylococcus aureus.

MRSA1094 = assay: MIC against clinically relevant strains; format: cell-based; details: Staphylococcus aureus; methicillin resistant S. aureus strain
Procedure: as §3, §4

MRSA1132 = assay: MIC against clinically relevant strains; format: cell-based; details: Staphylococcus aureus; methicillin resistant S. aureus strain
Procedure: as §3, §4

MSSA108 = assay: MIC against clinically relevant strains; format: cell-based; details: Staphylococcus aureus; methicillin sensitive S. aureus strain
Procedure: as §3, §4

VRE 700802 = assay: In vivo efficacy of Compound 70 in mouse models; design: species or system Enterococcus faecalis; details: mice, 3x10^8 CFU/mouse + 5% Mucin; positive control, 100mg/kg, t=0
Procedure: Swiss Webster mice, ca. 20 g each, were infected with Staphylococcus aureus (Smith strain) by the intraperitoneal route. Test compounds (2, 4, 5, 6, 7, 8, 10, 12) were dissolved in 10% dimethylsulfoxide in peanut oil to a concentration of 2 mg/ml. Vancomycin was used as positive control drug (i.e., protection from lethal infection). Fifteen minutes after infection, test compounds, vancomycin, or vehicle alone were given intraperitoneally to groups of five mice each. Animals were monitored for three days, and the number of mice surviving was tabulated for each treatment.
Using the same basic procedure as described above, the in vivo efficacy of Compound 70 was also evaluated at various doses in mice infected with S. aureaus (Smith), MRSA 1094, Enterococcus faecalis, or vancomycin-resistant Enterococcus faecalis strain VRE 700802. […] Negative controls were mice infected that received no treatment. Mucin was employed as an adjuvant to facilitate bacterial infection in mice, where indicated.

[1] = HBI medium, 16 to 18 hours at 37°C
[2] = HBI medium, 16 to 18 hours at 37°C, read-out: MIC (µg/ml) S.aureus (Smith)
[3] = table of MSSA/MRSA strains, read-out: MIC (µg/ml) S. aureus (Smith)

Structure (SMILES) | Ki (B. subtilis Pol IIIC) [µM] | MIC (B. subtilis) [µg/mL] | MIC (S. aureus; [1]) [µg/mL] | MIC (S. aureus; table of MSSA/MRSA strains) [µg/mL] | MIC (S.aureus (Smith); [2]) [µg/mL] | MIC (S.aureus (Smith); [3]) [µg/mL] | MIC (E. fecalis) [µg/mL] | MIC (E. fecium) [µg/mL] | MIC (E. coli; [1]) [µg/mL] | MIC (MRSA 1123) [µg/mL] | MIC (MRSA1094) [µg/mL] | MIC (MRSA1132) [µg/mL] | MIC (MSSA108) [µg/mL] | Ki (µM) Pol IIIC (B. subtilis Pol IIIC) | % Survival at 72 hours (VRE 700802) | MIC (E. coli) [µg/mL]
CCc1cc(Nc2cc(=O)n(CCCCN3CCN(c4c(F)cc5c(=O)c(C(=O)O)cn(CC)c5c4Cl)CC3)c(=O)[nH]2)ccc1C [Compound 5, 3-{4-[1-(1-ethyl-3-carboxy-4-oxo-6-fluoro-8-chloro-7-quinolyl)-4-piperazinyl]butyl}-6-(3-ethyl-4-methylanilino)uracil] | 0.016 | 0.078 (≈ 0.119 µM) | 0.156 (≈ 0.239 µM) | 0.156 (≈ 0.239 µM) | 0.156 (≈ 0.239 µM) | 0.156 (≈ 0.239 µM) | 1.25 (≈ 1.91 µM) | 2.5 (≈ 3.83 µM) | 10 (≈ 15.3 µM) | 0.625 (≈ 0.957 µM) | 0.625 (≈ 0.957 µM) | 0.625 (≈ 0.957 µM) | 0.625 (≈ 0.957 µM) |  |  | 
CCc1cc(Nc2cc(=O)n(CCCCN3CCN(c4nc5c(cc4F)c(=O)c(C(=O)O)cn5CC)CC3)c(=O)[nH]2)ccc1C [Compound 6, 3-{4-[1-(1-ethyl-3-carboxy-4-oxo-6-fluoro-8-aza-7-quinolyl)-4-piperazinyl]butyl}-6-(3-ethyl-4-methylanilino)uracil] | 0.018 | 0.156 (≈ 0.252 µM) | 0.625 (≈ 1.01 µM) | 0.625 (≈ 1.01 µM) | 0.625 (≈ 1.01 µM) | 0.625 (≈ 1.01 µM) | 1.25 (≈ 2.02 µM) | 1.25 (≈ 2.02 µM) | > 20 | 0.625 (≈ 1.01 µM) | 1.25 (≈ 2.02 µM) | 0.625 (≈ 1.01 µM) | 0.625 (≈ 1.01 µM) |  |  | 
Cc1ccc(Nc2cc(=O)n(CCCCN3CCN(c4cc5c(cc4F)c(=O)c(C(=O)O)cn5C4CC4)C[C@H]3C)c(=O)[nH]2)cc1C [Compound 96, (R)-3-{4-[1-(1-cyclopropyl-3-carboxy-4-oxo-6-fluoro-7-quinolyl)-3-methyl-4-piperazinyl]butyl}-6-(3,4-dimethylanilino)uracil] | 0.019 | 0.156 (≈ 0.247 µM) | 0.625 (≈ 0.991 µM) |  | 0.313 (≈ 0.496 µM) |  | 0.625 (≈ 0.991 µM) | 0.625 (≈ 0.991 µM) | 5 (≈ 7.93 µM) |  |  |  |  |  |  | 
Cc1ccc(Nc2cc(=O)n(CCCCN3CCN(c4cc5c(cc4F)c(=O)c(C(=O)O)cn5C4CC4)C[C@@H]3C)c(=O)[nH]2)cc1C [Compound 97, (S)-3-{4-[1-(1-cyclopropyl-3-carboxy-4-oxo-6-fluoro-7-quinolyl)-3-methyl-4-piperazinyl]butyl}-6-(3,4-dimethylanilino)uracil] | 0.037 | 0.235 (≈ 0.373 µM) | 1.25 (≈ 1.98 µM) |  | 0.625 (≈ 0.991 µM) |  | 0.625 (≈ 0.991 µM) | 1.25 (≈ 1.98 µM) | 40 (≈ 63.4 µM) |  |  |  |  |  |  | 
Cc1ccc(Nc2cc(=O)n(CCCCN3CCN(c4c(F)cc5c(=O)c(C(=O)O)cn(C6CC6)c5c4F)C[C@H]3C)c(=O)[nH]2)cc1C [Compound 98, (R)-3-{4-[1-(1-cyclopropyl-3-carboxy-4-oxo-6,8-difluoro-7-quinolyl)-3-methyl-4-piperazinyl]butyl}-6-(3,4-dimethylanilino)uracil] | 0.029 | 0.313 (≈ 0.482 µM) | 1.25 (≈ 1.93 µM) |  | 0.625 (≈ 0.963 µM) |  | 1.25 (≈ 1.93 µM) | 1.25 (≈ 1.93 µM) | 5 (≈ 7.71 µM) |  |  |  |  |  |  | 
Cc1ccc(Nc2cc(=O)n(CCCCN3CCN(c4c(F)cc5c(=O)c(C(=O)O)cn(C6CC6)c5c4F)C[C@@H]3C)c(=O)[nH]2)cc1C [Compound 99, (S)-3-{4-[1-(1-cyclopropyl-3-carboxy-4-oxo-6,8-difluoro-7-quinolyl)-3-methyl-4-piperazinyl]butyl}-6-(3,4-dimethylanilino)uracil] | 0.03 | 0.156 (≈ 0.24 µM) | 0.313 (≈ 0.482 µM) |  | 0.156 (≈ 0.24 µM) |  | 0.625 (≈ 0.963 µM) | 1.25 (≈ 1.93 µM) | 0.625 (≈ 0.963 µM) |  |  |  |  |  |  | 
CCc1cc(Nc2cc(=O)n(CCCCN3CCN(c4cc5c(cc4F)c(=O)c(C(=O)O)cn5C4CC4)C[C@@H]3C)c(=O)[nH]2)ccc1C [Compound 100, (S)-3-{4-[1-(1-cyclopropyl-3-carboxy-4-oxo-6-fluoro-7-quinolyl)-3-methyl-4-piperazinyl]butyl}-6-(3-ethyl-4-methylanilino)uracil] | 0.011 | 0.156 (≈ 0.242 µM) | 0.937 (≈ 1.45 µM) |  | 0.625 (≈ 0.969 µM) |  | 0.475 (≈ 0.737 µM) | 0.937 (≈ 1.45 µM) | 50 (≈ 77.5 µM) |  |  |  |  |  |  | 
Cc1ccc(Nc2cc(=O)n(CCCCN3CCN(c4c(F)cc5c(=O)c(C(=O)O)cn(C6CC6)c5c4F)CC3)c(=O)[nH]2)cc1C [Compound 101, 3-{4-[1-(1-cyclopropyl-3-carboxy-4-oxo-6,8-difluoro-7-quinolyl)-4-piperazinyl]butyl}-6-(3,4-dimethylanilino)uracil] | 0.024 | 0.235 (≈ 0.37 µM) | 0.625 (≈ 0.985 µM) |  | 0.313 (≈ 0.493 µM) |  | 0.937 (≈ 1.48 µM) | 1.25 (≈ 1.97 µM) | 5 (≈ 7.88 µM) |  |  |  |  |  |  | 
O=C(O)c1cn(C2CC2)c2cc(N3CCNCC3)c(F)cc2c1=O [cflxn, ciprofloxacin, reference compound] |  | 0.156 (≈ 0.471 µM) | 0.156 (≈ 0.471 µM) |  | 0.078 (≈ 0.235 µM) |  |  |  | 0.078 (≈ 0.235 µM) |  |  |  |  | inactive | ciprofloxacin (100mg/kg, t=0) 90% (9/10)** | 
CCn1cc(C(=O)O)c(=O)c2cc(F)c(N3CCNCC3)cc21 [nflxn, norfloxacin, reference compound] |  | 0.625 (≈ 1.96 µM) | 0.625 (≈ 1.96 µM) |  | 0.156 (≈ 0.489 µM) |  | 2.5 (≈ 7.83 µM) | 20 (≈ 62.6 µM) |  |  |  |  |  | inactive |  | 0.078 (≈ 0.244 µM)
